In patent US20230085307A1, “PYRIDAZINONE COMPOUND AND HERBICIDE” (NISSAN CHEMICAL CORPORATION, priority 2019, published 2023):

Legend:
barnyard grass [1] = assay: Test Example 3: herbicidal effect by foliage application, Wagner pot (Table 18, symbol H); assay type: in vivo, barnyard grass (Echinochloa crus-galli)
Method in brief: (§1)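 Plants were sown in alluvial soil held under 0.1–0.5 cm standing water and grown 14 days in a greenhouse at 25–30 °C. An emulsifiable formulation, water-diluted to the set dose, was then sprayed onto the foliage, and effects were scored three weeks later using previously defined criteria.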

Chinese sprangletop = assay: Test Example 3: herbicidal effect by foliage application, Wagner pot (Table 18, symbol D); assay type: in vivo, chinese sprangletop (Leptochloa chinensis)
Method in brief: as §1

rice flat sedge = assay: Test Example 3: herbicidal effect by foliage application, Wagner pot (Table 18, symbol E); assay type: in vivo, rice flat sedge (Cyperus iria)
Method in brief: as §1

southern crabgrass = assay: Test Example 4: herbicidal effect by soil treatment (Table 19, symbol F); assay type: in vivo, southern crabgrass (Digitaria ciliaris)
Method in brief: (§2)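 Pre-emergence style soil spray: seeds under ~1.5 cm sterilized diluvial soil received a uniform coat of emulsion diluted to the predetermined herbicide amount. Greenhouse 25–30° C; readout at week three on previously defined criteria.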

green foxtail = assay: Test Example 4: herbicidal effect by soil treatment (Table 19, symbol G); assay type: in vivo, green foxtail (Setaria viridis)
Method in brief: as §2

barnyard grass [2] = assay: Test Example 4: herbicidal effect by soil treatment (Table 19, symbol H); assay type: in vivo, barnyard grass (Echinochloa crus-galli)
Method in brief: as §2

wild oat = assay: Test Example 4: herbicidal effect by soil treatment (Table 19, symbol I); assay type: in vivo, wild oat (Avena fatua)
Method in brief: as §2

blackgrass = assay: Test Example 4: herbicidal effect by soil treatment (Table 19, symbol J); assay type: in vivo, blackgrass (Alopecurus myosuroides)
Method in brief: as §2

Italian ryegrass = assay: Test Example 4: herbicidal effect by soil treatment (Table 19, symbol K); assay type: in vivo, Italian ryegrass (Lolium multiflorum)
Method in brief: as §2

windgrass = assay: Test Example 4: herbicidal effect by soil treatment (Table 19, symbol L); assay type: in vivo, windgrass (Apera spica-venti)
Method in brief: as §2

velvetleaf = assay: Test Example 4: herbicidal effect by soil treatment (Table 19, symbol M); assay type: in vivo, velvetleaf (Abutilon theophrasti)
Method in brief: as §2

redroot pigweed = assay: Test Example 4: herbicidal effect by soil treatment (Table 19, symbol N); assay type: in vivo, redroot pigweed (Amaranthus retroflexus)
Method in brief: as §2

lambsquarters = assay: Test Example 4: herbicidal effect by soil treatment (Table 19, symbol O); assay type: in vivo, lambsquarters (Chenopodium album)
Method in brief: as §2

chickweed = assay: Test Example 4: herbicidal effect by soil treatment (Table 19, symbol P); assay type: in vivo, common chickweed (Stellaria media)
Method in brief: as §2

persian speedwell = assay: Test Example 4: herbicidal effect by soil treatment (Table 19, symbol R); assay type: in vivo, Persian speedwell (Veronica persica)
Source text: [Test Example 4] Herbicidal Effect Test by Soil Treatment
Sterilized diluvial soil was placed in a plastic box having a length of 21 cm, a width of 13 cm, and a depth of 7 cm. The seeds of each of southern crabgrass, green foxtail, barnyard grass, wild oat, blackgrass, Italian ryegrass, windgrass, velvetleaf, redroot pigweed, lambsquarters, chickweed, false cleavers, persian speedwell, corn, soybean, rice, wheat, beet, and rapeseed were sowed in a spot-like manner and covered with the soil having a thickness of about 1.5 cm. Subsequently, the emulsion agent of the compound of the present invention prepared according to Formulation Example 2 was diluted with water so as to achieve a predetermined herbicide amount, and the diluted emulsion agent was uniformly applied to the surface of the soil with a small-sized spray. The plastic box was placed in a greenhouse at 25° C. to 30° C. for growth of the plants. Three weeks after the herbicide application, the effect of the herbicide on each plant was evaluated according to the criteria of Test Example 1.

[3] = amount of applied herbicide 84 g/ha
[4] = amount of applied herbicide 320 g/ha

## Cc1nn(C)c(=O)c(-c2c(-c3c(F)cc(F)cc3F)sc3ccc(F)cc23)c1O [2-372]
Barnyard grass [1]; [3]
  herbicidal effect on H: barnyard grass: 4 (Herbicidal rate of 70% or more and less than 90%)
Chinese sprangletop; [3]
  herbicidal effect on D: Chinese sprangletop: 4 (Herbicidal rate of 70% or more and less than 90%)
Rice flat sedge; [3]
  herbicidal effect on E: rice flat sedge: 3 (Herbicidal rate of 40% or more and less than 70%)
Southern crabgrass; [3]
  herbicidal effect, F: southern crabgrass: 0 (Herbicidal rate of 5% or less (almost no effect))
Green foxtail; [3]
  herbicidal effect, G: green foxtail: 0 (Herbicidal rate of 5% or less (almost no effect))
Barnyard grass [2]; [3]
  herbicidal effect, H: barnyard grass: 0 (Herbicidal rate of 5% or less (almost no effect))
Wild oat; [3]
  herbicidal effect, I: wild oat: 0 (Herbicidal rate of 5% or less (almost no effect))
blackgrass; [3]
  herbicidal effect, J: blackgrass: 0 (Herbicidal rate of 5% or less (almost no effect))
Italian ryegrass; [3]
  herbicidal effect, K: Italian ryegrass: 2 (Herbicidal rate of 20% or more and less than 40%)
windgrass; [3]
  herbicidal effect, L: windgrass: 0 (Herbicidal rate of 5% or less (almost no effect))
velvetleaf; [3]
  herbicidal effect, M: velvetleaf: 0 (Herbicidal rate of 5% or less (almost no effect))
Redroot pigweed; [3]
  herbicidal effect, N: redroot pigweed: 0 (Herbicidal rate of 5% or less (almost no effect))
lambsquarters; [3]
  herbicidal effect, O: lambsquarters: 0 (Herbicidal rate of 5% or less (almost no effect))
chickweed; [3]
  herbicidal effect, P: chickweed: 0 (Herbicidal rate of 5% or less (almost no effect))
Persian speedwell; [3]
  herbicidal effect, R: persian speedwell: 0 (Herbicidal rate of 5% or less (almost no effect))

## CCCC(=O)Oc1c(C)nn(C)c(=O)c1-c1c(-c2cnccc2F)sc2ccc(F)cc12 [2-384]
Barnyard grass [1]; [4]
  herbicidal effect on H: barnyard grass: 3 (Herbicidal rate of 40% or more and less than 70%)
Chinese sprangletop; [4]
  herbicidal effect on D: Chinese sprangletop: 3 (Herbicidal rate of 40% or more and less than 70%)
Rice flat sedge; [4]
  herbicidal effect on E: rice flat sedge: 3 (Herbicidal rate of 40% or more and less than 70%)
Southern crabgrass; [4]
  herbicidal effect, F: southern crabgrass: 3 (Herbicidal rate of 40% or more and less than 70%)
Green foxtail; [4]
  herbicidal effect, G: green foxtail: 4 (Herbicidal rate of 70% or more and less than 90%)
Barnyard grass [2]; [4]
  herbicidal effect, H: barnyard grass: 3 (Herbicidal rate of 40% or more and less than 70%)
Wild oat; [4]
  herbicidal effect, I: wild oat: 1 (Herbicidal rate of 5% or more and less than 20%)
blackgrass; [4]
  herbicidal effect, J: blackgrass: 0 (Herbicidal rate of 5% or less (almost no effect))
Italian ryegrass; [4]
  herbicidal effect, K: Italian ryegrass: 4 (Herbicidal rate of 70% or more and less than 90%)
windgrass; [4]
  herbicidal effect, L: windgrass: 0 (Herbicidal rate of 5% or less (almost no effect))
velvetleaf; [4]
  herbicidal effect, M: velvetleaf: 2 (Herbicidal rate of 20% or more and less than 40%)
Redroot pigweed; [4]
  herbicidal effect, N: redroot pigweed: 4 (Herbicidal rate of 70% or more and less than 90%)
lambsquarters; [4]
  herbicidal effect, O: lambsquarters: 3 (Herbicidal rate of 40% or more and less than 70%)
chickweed; [4]
  herbicidal effect, P: chickweed: 4 (Herbicidal rate of 70% or more and less than 90%)
Persian speedwell; [4]
  herbicidal effect, R: persian speedwell: 4 (Herbicidal rate of 70% or more and less than 90%)
